In US10568879B2 (GALAPAGOS NV, priority 2015, dated 2020):
Like-named read-outs stand apart in the source and are kept apart here.

Tests used:
GPR84 = target: T1, GPR84 (Homo sapiens, UniProt Q9NQS5); assay: GPR84 [35S]GTPγS binding assay; type: biochemical; settings: 3,3′-diindolylmethane at EC80; membranes from stable cell line over expressing GPR84
T1 construct: expressed in transfected cells
Method in brief: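 Antagonist-mode [35S]GTPγS binding on membranes from a GPR84-overexpressing stable line (GDP-preincubated), stimulated with 3,3′-diindolylmethane at EC80. Buffer 20 mM Tris pH 7.5, 5 mM MgCl2, 250 mM NaCl, saponin; 0.1 nM [35S]GTPγS, 90 min at room temperature, SPA bead read-out.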

human neutrophils = assay: Human neutrophil migration assay; type: cell-based; settings: Homo sapiens, Neutrophil, read-out: Human neutrophil migration IC50
Procedure: The activity of GPR84 agonists and antagonists can therefore be assayed in a human neutrophil migration assay. The human neutrophil migration assay makes use of freshly isolated human neutrophils from buffy coats that are subsequently used in a functional chemotaxis assay setup. […] After 1 h of incubation at 37° C. and 5% CO2, the number of migrated neutrophils in the lower compartment can be quantified by measuring the ATP content using ATPlite™ Luminescence Assay System. A human buffy coat suspension is diluted with an equal volume of ice cold DPBS. 20 mL of the diluted buffy coat suspension is gently mixed with 4 mL of ACD buffer (140 mM citric acid, 200 mM sodium citrate and 220 mM dextrose). Then, 12 mL of a 6% dextran/0.9% NaCl solution (15 g dextran T2000 and 2.25 g NaCl dissolved in 250 mL H2O) is added to the mixture and the samples are inverted gently up to 20 times. The total volume is transferred to a new recipient and incubated at room temperature to allow sedimentation of red blood cells. The yellowish upper fraction is then transferred to a clean centrifugation tube and centrifuged for 12 min at 1300 rpm and 4° C. After centrifugation, the supernatant is discarded and the remaining cell pellet is rapidly resuspended in 12 mL of ice-cold H2O to perform a red blood cell lysis by osmotic burst. After 20 seconds, 4 mL of ice-cold 0.6 M KCl is added to restore salt concentration. Samples are mixed carefully and centrifuged for 6 min at 1300 rpm and 4° C. The supernatant is discarded and the red blood cell lysis procedure is repeated one more time. […] A neutrophil cell suspension of 8.9×10^6 cells per mL is prepared in chemotaxis buffer and 180 μL per well is plated in a 96-well V-bottom plate. 20 μL of test compound solution in chemotaxis buffer is added to the 180 μL cell suspension. The mixture is incubated at room temperature for 30 min with intermediate gentle resuspension of the cells after 15 min. […] After 1 h at 37° C., 5% CO2 in a humidified incubator, the upper plate of the Transwell® system is gently removed. […] After incubation, 270 μL of cell lysate is then transferred onto a white 96-well plate for quantification by a luminescence plate reader. The relative luminescent signal measured is considered linearly related to the number of cells having migrated from the upper compartment into the receiver well.

[1] = embelin at EC80 as chemotactic agent, 1 h at 37° C.

T1 sequence (Q9NQS5 whole entry): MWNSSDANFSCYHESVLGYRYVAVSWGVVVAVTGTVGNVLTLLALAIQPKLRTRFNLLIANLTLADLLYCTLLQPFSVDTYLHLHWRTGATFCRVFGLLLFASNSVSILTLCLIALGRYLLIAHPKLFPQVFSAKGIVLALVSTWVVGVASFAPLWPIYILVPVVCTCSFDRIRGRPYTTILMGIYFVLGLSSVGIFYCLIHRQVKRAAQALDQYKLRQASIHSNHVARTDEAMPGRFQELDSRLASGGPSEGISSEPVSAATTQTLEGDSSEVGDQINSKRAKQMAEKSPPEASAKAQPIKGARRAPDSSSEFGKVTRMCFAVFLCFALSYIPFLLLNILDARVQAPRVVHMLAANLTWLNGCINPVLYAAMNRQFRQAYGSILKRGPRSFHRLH

| SMILES | IC50 (GPR84) | IC50 (human neutrophils; [1]) | IC50 (human neutrophils; 1 h) |
| --- | --- | --- | --- |
| COc1ccc2c(c1OC)CCn1c(NCC3COCCO3)cc(=O)cc1-2 (stereo not drawn) [Compound 19, 4-(1,4-dioxan-2-ylmethylamino)-8,9-dimethoxy-6,7-dihydrobenzo[a]quinolizin-2-one] | 500 to 1000 nM | > 1000 nM |  |
| COc1ccc2c(c1OC)CCn1c(NCC3CCCO3)cc(=O)cc1-2 (stereo not drawn) [Compound 20, 8,9-dimethoxy-4-(tetrahydrofuran-2-ylmethylamino)-6,7-dihydrobenzo[a]quinolizin-2-one] | > 1000 nM | > 1000 nM |  |
| COc1c(O)ccc2c1CCn1c(NCC3COCCO3)cc(=O)cc1-2 (stereo not drawn) [Compound 21, 4-(1,4-dioxan-2-ylmethylamino)-9-hydroxy-8-methoxy-6,7-dihydrobenzo[a]quinolizin-2-one] | > 1000 nM | > 1000 nM |  |
| COc1ccc2c(c1O)CCn1c(NCC3COCCO3)cc(=O)cc1-2 (stereo not drawn) [Compound 22, 4-(1,4-dioxan-2-ylmethylamino)-8-hydroxy-9-methoxy-6,7-dihydrobenzo[a]quinolizin-2-one] | > 1000 nM | > 1000 nM |  |
| COc1c(OCC(F)F)ccc2c1CCn1c(NCC3COCCO3)cc(=O)c(C)c1-2 (stereo not drawn) [Compound 23, 9-(2,2-Difluoro-ethoxy)-4-[([1,4]dioxan-2-ylmethyl)-amino]-8-methoxy-1-methyl-6,7-dihydro-pyrido[2,1-a]isoquinolin-2-one] | 0.01 to 100 nM |  | 0.01 to 100 nM |
| Cc1c2n(c(OC[C@@H]3COCCO3)cc1=O)CCc1cc(C#N)ccc1-2 [Compound 25, 4-[[(1S)-1,4-dioxan-2-yl]methoxy]-1-methyl-2-oxo-6,7-dihydrobenzo[a]quinolizine-9-carbonitrile] | 500 to 1000 nM | > 1000 nM |  |
| CCc1c2n(c(NCC3CCCO3)cc1=O)CCc1cc(OCC(F)F)ccc1-2 (stereo not drawn) [Compound 26, 9-(2,2-difluoroethoxy)-1-ethyl-4-(tetrahydrofuran-2-ylmethylamino)-6,7-dihydrobenzo[a]quinolizin-2-one] | 500 to 1000 nM | 500 to 1000 nM |  |
| CCc1c2n(c(NCC3CCCO3)cc1=O)CCc1cc(OCC(F)(F)F)ccc1-2 (stereo not drawn) [Compound 27, 1-ethyl-4-(tetrahydrofuran-2-ylmethylamino)-9-(2,2,2-trifluoroethoxy)-6,7-dihydrobenzo[a]quinolizin-2-one] | 500 to 1000 nM | 100 to 500 nM |  |
| Cc1c2n(c(NC[C@@H]3COCCO3)cc1=O)CCc1cc(OCC(F)F)ccc1-2 [Compound 35, 9-(2,2-difluoroethoxy)-4-[[(2R)-1,4-dioxan-2-yl]methylamino]-1-methyl-6,7-dihydrobenzo[b]quinolizin-2-one] | 100 to 500 nM | 0.01 to 100 nM |  |
| Cc1c2n(c(OC[C@@H]3COCCO3)cc1=O)CCc1cc(C3=CCOCC3)ccc1-2 [Compound 39, 9-(3,6-dihydro-2H-pyran-4-yl)-4-[[(2S)-1,4-dioxan-2-yl]methoxy]-1-methyl-6,7-dihydrobenzo[a]quinolizin-2-one] | 100 to 500 nM | 0.01 to 100 nM |  |
| Cc1noc(COc2ccc3c(c2)CCn2c(OCC4CCCCO4)cc(=O)c(C)c2-3)n1 (stereo not drawn) [Compound 44, 1-methyl-9-[(3-methyl-1,2,4-oxadiazol-5-yl)methoxy]-4-(tetrahydropyran-2-ylmethoxy)-6,7-dihydrobenzo[a]quinolizin-2-one] | 0.01 to 100 nM | 0.01 to 100 nM |  |

Now from value to molecule, other results behind:

| IC50 (GPR84) | IC50 (human neutrophils; [1]) | SMILES | IC50 (human neutrophils; 1 h) |
| --- | --- | --- | --- |
| 0.01 to 100 nM | 100 to 500 nM | COc1ccc2c(c1OC)CCn1c(NCC3CCCCO3)cc(=O)c(C)c1-2 (stereo not drawn) [Compound 16, 8,9-dimethoxy-1-methyl-4-(tetrahydropyran-2-ylmethylamino)-6,7-dihydrobenzo[a]quinolizin-2-one] |  |
| 0.01 to 100 nM | 100 to 500 nM | COc1ccc2c(c1OC)CCn1c(NCC3COCCO3)cc(=O)c(C)c1-2 (stereo not drawn) [Compound 17, 4-(1,4-dioxan-2-ylmethylamino)-8,9-dimethoxy-1-methyl-6,7-dihydrobenzo[a]quinolizin-2-one] |  |
| 0.01 to 100 nM | 100 to 500 nM | COc1c(OCC(F)F)ccc2c1CCn1c(NCC3CCCO3)cc(=O)c(C)c1-2 (stereo not drawn) [Compound 24, 9-(2,2-Difluoro-ethoxy)-8-methoxy-1-methyl-4-[(tetrahydro-furan-2-ylmethyl)-amino]-6,7-dihydro-pyrido[2,1-a]isoquinolin-2-one] |  |
| 0.01 to 100 nM | 0.01 to 100 nM | COc1ccc2c(c1OC)CCn1c(OCC3CCCO3)cc(=O)c(C)c1-2 (stereo not drawn) [Compound 28, 8,9-dimethoxy-1-methyl-4-(tetrahydrofuran-2-ylmethoxy)-6,7-dihydrobenzo[b]quinolizin-2-one] |  |
| 0.01 to 100 nM | 0.01 to 100 nM | COc1ccc2c(c1OC)CCn1c(OCC3CCCCO3)cc(=O)c(C)c1-2 (stereo not drawn) [Compound 29, 8,9-dimethoxy-1-methyl-4-(tetrahydropyran-2-ylmethoxy)-6,7-dihydrobenzo[b]quinolizin-2-one] |  |
| 0.01 to 100 nM | 0.01 to 100 nM | Cc1c2n(c(OC[C@@H]3COCCO3)cc1=O)CCc1cc(OCC3CCOCC3)ccc1-2 [Compound 30, 4-[[(2S)-1,4-dioxan-2-yl]methoxy]-1-methyl-9-(tetrahydropyran-4-ylmethoxy)-6,7-dihydrobenzo[b]quinolizin-2-one] |  |
| 0.01 to 100 nM | 0.01 to 100 nM | Cc1c2n(c(OC[C@@H]3COCCO3)cc1=O)CCc1cc(OCc3ccccn3)ccc1-2 [Compound 31, 4-[[(2S)-1,4-dioxan-2-yl]methoxy]-1-methyl-9-(2-pyridylmethoxy)-6,7-dihydrobenzo[b]quinolizin-2-one] |  |
| 0.01 to 100 nM | 0.01 to 100 nM | Cc1c2n(c(OC[C@@H]3COCCO3)cc1=O)CCc1cc(OCc3cccc(OC(F)(F)F)c3)ccc1-2 [Compound 32, 4-[[(2S)-1,4-dioxan-2-yl]methoxy]-1-methyl-9-[[3-(trifluoromethoxy)phenyl]methoxy]-6,7-dihydrobenzo[a]quinolizin-2-one] |  |
| 0.01 to 100 nM | 0.01 to 100 nM | Cc1c2n(c(OC[C@@H]3COCCO3)cc1=O)CCc1cc(OCc3ccccc3)ccc1-2 [Compound 33, 9-benzyloxy-4-[[(2S)-1,4-dioxan-2-yl]methoxy]-1-methyl-6,7-dihydrobenzo[a]quinolizin-2-one] |  |
| 0.01 to 100 nM | 100 to 500 nM | Cc1c2n(c(NC[C@@H]3COCCO3)cc1=O)CCc1cc(OCC(F)(F)F)ccc1-2 [Compound 36, 4-[[(2R)-1,4-dioxan-2-yl]methylamino]-1-mehtyl-9-(2,2,2-trifluoroethoxy)-6,7-dihydrobenzo[a]quinolizin-2-one] |  |
| 0.01 to 100 nM | 0.01 to 100 nM | Cc1c2n(c(OC[C@@H]3COCCO3)cc1=O)CCc1cc(OS(=O)(=O)C(F)(F)F)ccc1-2 [Compound 37, [4-[[(2S)-1,4-dioxan-2-yl]methoxy]-1-methyl-2-oxo-6,7-dihydrobenzo[a]quinolizin-9-yl] trifluoromethanesulfonate] |  |
| 0.01 to 100 nM | 100 to 500 nM | Cc1c2n(c(OC[C@@H]3COCCO3)cc1=O)CCc1cc(OCc3cnn(C)c3)ccc1-2 [Compound 38, 4-[[(2S)-1,4-dioxan-2-yl]methoxy]-1-methyl-9-[(1-methylpyrazol-4-yl)methoxy]-6,7-dihydrobenzo[a]quinolizin-2-one] |  |
| 0.01 to 100 nM |  | CCn1cc(-c2ccc3c(c2)CCn2c(OC[C@@H]4COCCO4)cc(=O)c(C)c2-3)cn1 [Compound 40, 4-[[(2S)-1,4-dioxan-2-yl]methoxy]-9-(1-ethylpyrazol-4-yl)-1-methyl-6,7-dihydrobenzo[a]quinolizin-2-one] | 0.01 to 100 nM |
| 0.01 to 100 nM | 0.01 to 100 nM | Cc1c2n(c(OC[C@@H]3COCCO3)cc1=O)CCc1cc(C3CCOCC3)ccc1-2 [Compound 41, 4-[[(2S)-1,4-dioxan-2-yl]methoxy]-1-methyl-9-tetrahydropyran-4-yl-6,7-dihydrobenzo[a]quinolizin-2-one] |  |
| 0.01 to 100 nM | 0.01 to 100 nM | Cc1c2n(c(NC[C@@H]3CCCO3)cc1=O)CCc1cc(OCC(F)(F)F)ccc1-2 [Compound 42, 1-methyl-4-[[(2S)-tetrahydrofuran-2-yl]methylamino]-9-(2,2,2-trifluoroethoxy)-6,7-dihydrobenzo[a]quinolizin-2-one] |  |
| 0.01 to 100 nM | 0.01 to 100 nM | Cc1noc(COc2ccc3c(c2)CCn2c(OCC4CCCO4)cc(=O)c(C)c2-3)n1 (stereo not drawn) [Compound 43, 1-methyl-9-[(3-methyl-1,2,4-oxadiazol-5-yl)methoxy]-4-(tetrahydrofuran-2-ylmethoxy)-6,7-dihydrobenzo[a]quinolizin-2-one] |  |
